The nature of data set [1]: Selectivity index, ratio of IC50 for African green monkey Vero cells to IC50 for Trypanosoma cruzi TINF/CH/1956/Tulahuen DTU 6 trypomastigotes derived from infected Balb/c albino mouse. The data set is classed as toxicity. The note with it: read-out: Ratio IC50.
The test system of data set [2] is Trypanosoma cruzi. The data set can be described thus: Trypanocidal activity against Trypanosoma cruzi IRHOD/CO/2008/SN3 DTU 1 epimastigotes after 48 to 72 hrs by resazurin dye based assay. Format: functional, organism-based. (Alamar Blue is a resazurin reagent that responds to reducing activity.)
Data set [3] in a line: Selectivity index, ratio of IC50 for African green monkey Vero cells to IC50 for Trypanosoma cruzi IRHOD/CO/2008/SN3 DTU 1 amastigotes infected in African green monkey Vero cells. Format: toxicity. The note with it: read-out: Ratio IC50.
The subject of data set [4] is Trypanosoma cruzi. Nature of the data set: Trypanocidal activity against Trypanosoma cruzi IRHOD/CO/2008/SN3 DTU 1 trypomastigotes derived from infected Balb/c albino mouse after 24 hrs by resazurin dye based assay. Format: functional, organism-based. The following applies: IRHOD/CO/2008/SN3 DTU 1, 24 h.
A short description of data set [5]: Selectivity index, ratio of IC50 for African green monkey Vero cells to IC50 for Trypanosoma cruzi MHOM/Pe/2011/Arequipa DTU 5 epimastigotes. Format: toxicity. The following applies: read-out: Ratio IC50.
Data set [6] in a line: Selectivity index, ratio of IC50 for African green monkey Vero cells to IC50 for Trypanosoma cruzi IRHOD/CO/2008/SN3 DTU 1 trypomastigotes derived from infected Balb/c albino mouse. Format: toxicity. The note with it: read-out: Ratio IC50.
Data set [7] in a line: Selectivity index, ratio of IC50 for African green monkey Vero cells to IC50 for Trypanosoma cruzi TINF/CH/1956/Tulahuen DTU 6 amastigotes infected in African green monkey Vero cells. Format: toxicity. The note with it: read-out: Ratio IC50.
Data set [8] relates to Trypanosoma cruzi. The data set can be described thus: Trypanocidal activity against Trypanosoma cruzi TINF/CH/1956/Tulahuen DTU 6 trypomastigotes derived from infected Balb/c albino mouse after 24 hrs by resazurin dye based assay. The data set is classed as functional, organism-based. The note with it: TINF/CH/1956/Tulahuen DTU 6, 24 h.
Data set [9] can be described thus: Selectivity index, ratio of IC50 for African green monkey Vero cells to IC50 for Trypanosoma cruzi IRHOD/CO/2008/SN3 DTU 1 epimastigotes. The following applies: read-out: Ratio IC50. Format: toxicity.
The test system of data set [10] is Trypanosoma cruzi. Nature of the data set: Trypanocidal activity against Trypanosoma cruzi IRHOD/CO/2008/SN3 DTU 1 amastigotes infected in African green monkey Vero cells after 72 hrs by Giemsa-staining based microscopic assay. The data set is classed as functional, organism-based. The note with it: IRHOD/CO/2008/SN3 DTU 1, Vero.
The subject of data set [11] is Trypanosoma cruzi. The data set can be described thus: Trypanocidal activity against Trypanosoma cruzi TINF/CH/1956/Tulahuen DTU 6 amastigotes infected in African green monkey Vero cells after 72 hrs by Giemsa-staining based microscopic assay. The data set is classed as functional, organism-based. The note with it: TINF/CH/1956/Tulahuen DTU 6, Vero.
For data set [12], the system named is Trypanosoma cruzi. Nature of the data set: Trypanocidal activity against Trypanosoma cruzi TINF/CH/1956/Tulahuen DTU 6 epimastigotes after 48 to 72 hrs by resazurin dye based assay. The data set is classed as functional, organism-based.
Data set [13] relates to Trypanosoma cruzi. Nature of the data set: Trypanocidal activity against Trypanosoma cruzi MHOM/Pe/2011/Arequipa DTU 5 epimastigotes after 48 to 72 hrs by resazurin dye based assay. Format: functional, organism-based.
Data set [14] in a line: Selectivity index, ratio of IC50 for African green monkey Vero cells to IC50 for Trypanosoma cruzi TINF/CH/1956/Tulahuen DTU 6 epimastigotes. Format: toxicity. The note with it: read-out: Ratio IC50.
The next data set concerns Vero. The data set can be described thus: Cytotoxicity against African green monkey Vero cells assessed as reduction in cell viability after 48 to 72 hrs by resazurin dye based assay. The note with it: Chlorocebus sabaeus.
In data set [15] the test system is Trypanosoma cruzi. Nature of the data set: Trypanocidal activity against Trypanosoma cruzi MHOM/Pe/2011/Arequipa DTU 5 trypomastigotes derived from infected Balb/c albino mouse after 24 hrs by resazurin dye based assay. The data set is classed as functional, organism-based. The note with it: MHOM/Pe/2011/Arequipa DTU 5, 24 h.
Data set [16] can be described thus: Selectivity index, ratio of IC50 for African green monkey Vero cells to IC50 for Trypanosoma cruzi MHOM/Pe/2011/Arequipa DTU 5 trypomastigotes derived from infected Balb/c albino mouse. Format: toxicity. The note with it: read-out: Ratio IC50.
For data set [17], the system named is Trypanosoma cruzi. Nature of the data set: Trypanocidal activity against Trypanosoma cruzi MHOM/Pe/2011/Arequipa DTU 5 amastigotes infected in African green monkey Vero cells after 72 hrs by Giemsa-staining based microscopic assay. The data set is classed as functional, organism-based. The note with it: MHOM/Pe/2011/Arequipa DTU 5, Vero.
Data set [18] in a line: Selectivity index, ratio of IC50 for African green monkey Vero cells to IC50 for Trypanosoma cruzi MHOM/Pe/2011/Arequipa DTU 5 amastigotes infected in African green monkey Vero cells. The data set is classed as toxicity. The following applies: read-out: Ratio IC50.

As usually defined, the IC50 is the point on the concentration scale where inhibition reaches its midpoint. `NCCN(CCN)CCNCc1ccc2ccccc2c1`: the selectivity ratio in data set [1] is 10.6; in data set [3], 9.6; in data set [5], 4.8; in data set [6], 11; in [7], 7.7; in data set [9] it was 25.4. For the same compound, the selectivity ratio in data set [14] was 14.8. Moreover, the IC50 amounted to 8 µM with Trypanosoma cruzi [2]; 18.4 µM in the data set with Trypanosoma cruzi [4]; 19 µM in the data set on Trypanosoma cruzi [8]; 21.1 µM with Trypanosoma cruzi [10]; 26.4 µM in the data set with Trypanosoma cruzi [11]; 13.6 µM in the data set on Trypanosoma cruzi [12]. In addition, the IC50 was 42.5 µM with Trypanosoma cruzi [13] and 202 µM in the data set with Vero.
With `CN(C)c1cccc2c(S(=O)(=O)NCCN(CCN)CCN)cccc12`, the 50% inhibitory concentration (IC50) was found to be 101 µM with Trypanosoma cruzi [2], 87.4 µM in the data set with Trypanosoma cruzi [12], 65.9 µM in the data set on Trypanosoma cruzi [13] and 137 µM in the data set with Vero.
With `NCCN(CCN)CCNCc1c2ccccc2cc2ccccc12`, the half-maximal inhibitory concentration (IC50) in the data set with Trypanosoma cruzi [2] came to 16.2 µM; in the data set on Trypanosoma cruzi [12], 54.7 µM; in the data set on Trypanosoma cruzi [13] it was 29.6 µM; with Vero it was 20.5 µM.
`c1ccc2cc(CNCCN(CCNCc3ccc4ccccc4c3)CCNCc3ccc4[nH]ncc4c3)ccc2c1`: the 50% inhibitory concentration (IC50) with Trypanosoma cruzi [2] worked out at 15.8 µM; with Trypanosoma cruzi [12], 14.7 µM; in the data set on Trypanosoma cruzi [13], 24 µM; in the data set with Vero, 22.3 µM.
Take `c1ccc(-c2n[nH]cc2CNCCN(CCNCc2c[nH]nc2-c2ccccc2)CCNCc2c[nH]nc2-c2ccccc2)cc1`: the IC50 was 186 µM in the data set with Trypanosoma cruzi [2], 88.2 µM in the data set on Trypanosoma cruzi [12], 72.4 µM in the data set with Trypanosoma cruzi [13] and 678 µM with Vero.
Regarding `c1ccc2c(CNCCN(CCNCc3ccnc4ccccc34)CCNCc3ccnc4ccccc34)ccnc2c1`, the IC50 in the data set with Trypanosoma cruzi [15] worked out at 14.3 µM; with Trypanosoma cruzi [2], 25.1 µM; in the data set with Trypanosoma cruzi [12], 23.5 µM; in the data set with Trypanosoma cruzi [13] it was 11.9 µM; in the data set with Vero it was 199 µM; with Trypanosoma cruzi [17] it was 20.1 µM. In addition, the selectivity ratio was 16.7 in [5]; 7.9 in [9]; 13.9 in data set [16]; 8.5 in [14]; 9.9 in data set [18].
Take `NCCCNCCN(CCNCCCN)CCNCCCN`: the half-maximal inhibitory concentration (IC50) with Trypanosoma cruzi [2] was 124 µM; with Trypanosoma cruzi [12] it was 202 µM; in the data set with Trypanosoma cruzi [13], 128 µM; in the data set on Vero it was 1180 µM.
For the compound `NCCN(CCN)CCNCc1ccc2ccc3cccc4ccc1c2c34`, the IC50 in the data set with Trypanosoma cruzi [2] worked out at 71 µM; with Trypanosoma cruzi [12], 21.9 µM; in the data set on Trypanosoma cruzi [13], 22.7 µM; with Vero, 33.4 µM.

The values are drawn from ChEMBL document CHEMBL4411300 (Eur J Med Chem, 2019).
